Test results published in paper PMC4814829, “Design, synthesis, crystallization and biological evaluation of new symmetrical biscationic compounds as selective inhibitors of human Choline Kinase α1 (ChoKα1)” (Scientific Reports, 2016).

Tests used:
PC-3 cells = assay: Antiproliferative MTT assay; assay type: cell-based; settings: Homo sapiens, 72 h, mean ± SEM
Experimental: (§1) Human T-cell leukemia (Jurkat), human B-cell leukemia (RS 4,11) and human promyelocytic leukemia (HL-60) cells were grown in RPMI-1640 medium (Gibco, Milan, Italy). Breast adenocarcinoma (MCF-7 and MDA-MB-231), human non-small cell lung carcinoma (A549), human cervix carcinoma (HeLa), human prostate adenocarcinoma (PC-3), and human colon adenocarcinoma (HT-29) cells were grown in DMEM medium (Gibco, Milan, Italy). Both media were supplemented with 115 units/mL of penicillin G (Gibco, Milan, Italy), 115 μg/mL of streptomycin (Invitrogen, Milan, Italy) and 10% fetal bovine serum (Invitrogen, Milan, Italy). Stock solutions (10 mM) of the different compounds were obtained by dissolving them in DMSO. Individual wells of 96-well tissue-culture microtiter plates were inoculated with 100 μL of complete medium containing 8 × 10^3 cells. The plates were incubated at 37 °C in a humidified 5% CO2 incubator for 18 h prior to the experiments. After medium removal, 100 μL of fresh medium containing the test compound at different concentrations was added to each well and incubated at 37 °C for 72 h. The percentage of DMSO in the medium in no case exceeded 0.25%.

HT-29 cells = assay: Antiproliferative MTT assay; assay type: cell-based; settings: Homo sapiens, 72 h, mean ± SEM
Experimental: as §1

A549 cells = assay: Antiproliferative MTT assay; assay type: cell-based; settings: Homo sapiens, 72 h, mean ± SEM
Experimental: as §1

MCF-7 cells [1] = assay: Antiproliferative MTT assay; assay type: cell-based; settings: Homo sapiens, MCF7, 72 h, mean ± SEM
Experimental: as §1

Jurkat cells [2] = assay: Antiproliferative MTT assay; assay type: cell-based; settings: Homo sapiens, 72 h, mean ± SEM
Experimental: as §1

MDA-MB-231 cells [3] = assay: Antiproliferative MTT assay; assay type: cell-based; settings: Homo sapiens, 72 h, mean ± SEM
Experimental: as §1

HeLa cells [4] = assay: Antiproliferative MTT assay; assay type: cell-based; settings: Homo sapiens, 72 h, mean ± SEM
Experimental: as §1

HUVEC = assay: Antiproliferative assay in non-tumoral cells; assay type: cell-based; settings: Homo sapiens, mean ± SEM
Experimental: Human Umbilical Vein Endothelial cells (HUVEC), were prepared from human umbilical-cord veins, as previously described. The adherent cells were maintained in M200 medium added by LSGS (low serum growth supplement), containing FBS, hydrocortisone, hEGF, bFGF, heparin, gentamycin/amphotericin (Life Technologies, Monza, Italy). Once confluent, the cells were detached by trypsin–EDTA solution and used in experiments from the first to sixth passages.

Jurkat cells [5] = assay: Trypan blue exclusion assay; assay type: cell-based, human
Experimental: Human T-cell leukemia (Jurkat), human B-cell leukemia (RS 4,11) and human promyelocytic leukemia (HL-60) cells were grown in RPMI-1640 medium (Gibco, Milan, Italy). Breast adenocarcinoma (MCF-7 and MDA-MB-231), human non-small cell lung carcinoma (A549), human cervix carcinoma (HeLa), human prostate adenocarcinoma (PC-3), and human colon adenocarcinoma (HT-29) cells were grown in DMEM medium (Gibco, Milan, Italy). […] Stock solutions (10 mM) of the different compounds were obtained by dissolving them in DMSO. Individual wells of 96-well tissue-culture microtiter plates were inoculated with 100 μL of complete medium containing 8 × 10^3 cells. The plates were incubated at 37 °C in a humidified 5% CO2 incubator for 18 h prior to the experiments. […] In additional experiments, cell viability was also determined by calculating the values of trypan blue positive cells (dead cells) and trypan blue negative (live cells) from a mixture of the cell suspension and 0.4% trypan blue solution. page 7: S-7 0 24 48 72 0.0 2.0x10 5 4.0x10 5 6.0x10^5 Cells/ml Time ([…] Figure S5 […] washed, counted, and incubated in a drug-free medium. After a further 72 h of incubation, cell viability was analyzed by trypan blue exclusion assay as described in the experimental section. (1 picture or pasted object on this page, not shown here)

MDA-MB-231 cells [6] = assay: Trypan blue exclusion assay; assay type: cell-based, human; settings: MDA-MB-231, concentration-dependent
Experimental: as §1

HeLa cells [7] = assay: Trypan blue exclusion assay; assay type: cell-based, human; settings: concentration-dependent
Experimental: as §1

[8] = tested on: panel of nine different human tumor-cell lines; assay: Antiproliferative activity against the panel of nine human tumor-cell lines; assay type: cell-based; settings: Homo sapiens; range or bound over all tested cell lines; read-out: GI50 across the tumor-cell line panel
Experimental: as §1

MCF-7 cells [9] = assay: Cell-cycle distribution analysis (PI, flow cytometry); assay type: cell-based, human
Experimental: [The source words this procedure for another cell line and reports this cell line under the same test.] (§2) For flow-cytometric analysis of the DNA content, 5 × 10^5 HeLa or Jurkat cells in exponential growth were treated with different concentrations of the test compounds for 24 and 48 h. After the incubation period, the cells were collected, centrifuged, and fixed with ice-cold ethanol (70%). The cells were then treated with lysis buffer containing RNAse A and 0.1% Triton X-100, and then stained with propidium iodide (PI). Samples were analyzed in a Cytomics FC500 flow cytometer (Beckman Coulter). DNA histograms were analyzed using MultiCycle for Windows (Phoenix Flow Systems).

Jurkat cells [10] = assay: as above; assay type: cell-based, human
Experimental: as §2

MDA-MB-231 cells [11] = assay: as above; assay type: cell-based, human
Experimental: [The source words this procedure for another cell line and reports this cell line under the same test.] as §2

PBL (resting) = assay: Antiproliferative assay in non-tumoral cells (MTT); assay type: cell-based; settings: Homo sapiens, 72 h, mean ± SEM
Experimental: (§3) Peripheral mononuclear cells (PBMC) from healthy donors were obtained by separation on Lymphoprep (Fresenius KABI Norge AS) gradient. After extensive washing, cells were resuspended (1 × 10^6 cells/mL) in RPMI-1640 with 10% fetal bovine serum and incubated overnight. For cytotoxicity evaluations in proliferating PBL cultures, non-adherent cells were resuspended at 5 × 10^5 cells/mL in growth medium, containing 2.5 μg/mL PHA (Irvine Scientific). Different concentrations of the test compounds were added, and viability was determined 72 h later by the MTT test. For cytotoxicity evaluations in resting PBL cultures, non-adherent cells were resuspended (5 × 10^5 cells/mL) and treated for 72 h with the test compounds, as described above.

PBL (+Pha) = assay: Antiproliferative assay in non-tumoral cells (MTT); assay type: cell-based; settings: Homo sapiens, non-tumoral cells stimulated with phytohematoagglutinin, 72 h, mean ± SEM
Experimental: as §3

Human fibroblasts = assay: Antiproliferative assay in non-tumoral cells; assay type: cell-based; settings: Fibroblast, mean ± SEM
Source text: Human fibroblasts from foreskin were isolated as previously described[58] and maintained in DMEM medium with 10% fetal bovine serum added.

purified human ChoKα1 = purified human ChoKα1 (Homo sapiens, UniProt P35790); assay: Determination of human choline kinase α1 activity ([methyl-14C]choline incorporation into phosphocholine); assay type: biochemical; settings: mean ± SEM, three independent experiments; read-out: IC50 ChoKα1 purified
Sequence of purified human ChoKα1 (P35790 whole entry): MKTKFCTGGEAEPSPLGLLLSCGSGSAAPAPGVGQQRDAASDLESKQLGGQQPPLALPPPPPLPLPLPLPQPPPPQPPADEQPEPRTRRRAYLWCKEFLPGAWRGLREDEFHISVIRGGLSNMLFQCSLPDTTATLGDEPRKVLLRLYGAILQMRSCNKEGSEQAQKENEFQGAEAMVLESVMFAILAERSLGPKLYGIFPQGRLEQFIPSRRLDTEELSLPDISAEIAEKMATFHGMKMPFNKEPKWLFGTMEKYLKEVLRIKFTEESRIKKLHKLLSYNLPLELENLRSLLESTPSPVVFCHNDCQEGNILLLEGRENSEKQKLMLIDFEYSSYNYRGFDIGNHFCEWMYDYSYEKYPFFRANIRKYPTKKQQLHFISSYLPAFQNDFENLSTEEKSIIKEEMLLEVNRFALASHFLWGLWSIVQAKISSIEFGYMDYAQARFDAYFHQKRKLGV
Experimental: The effect of the different inhibitors on human choline kinase (ChoK) was assayed in ChoKα1 purified as previously described[32]. In each experiment DMSO-assays were always run in parallel as a control. DMSO in no case exceeded a concentration of 0.1% in order to avoid unspecific ChoK inhibition. ChoK activity was assayed by measuring the rate of incorporation of ^14C from [methyl-^14C]choline into phosphocholine both in the presence or absence of different inhibitor concentrations. Briefly, the final reaction mixture contained 100 mM Tris (pH 8.5), 10 mM MgCl2, and 10 mM ATP, and 20 ng of purified ChoKα1. […] The assay was stopped by immersing the reaction tubes in boiling water for 3 min. Aliquots of the reaction mixture were applied to the origin of Silica Gel plates in the presence of phosphocholine (0.1 mg) and choline (0.1 mg) as carriers. The chromatography was developed in methanol/0.6% NaCl/28% NH4OH in water (50:50:5, v/v/v) as solvent. Phosphocholine was visualized under exposure to iodine vapor and the corresponding spot was scraped and transferred to scintillation vials for measurement of radioactivity by a Beckman 6000-TA (Madrid, Spain) liquid-scintillation counter. At least three experiments were performed in all assays.

CN(C)c1cc[n+](Cc2ccc(OCCOc3ccc(C[n+]4ccc(N(C)C)cc4)cc3)cc2)cc1.[Br-].[Br-] [Compound 10a, 1,1′-(((ethane-1,2-diylbis(oxy))bis(4,1-phenylene))bis(methylene))bis(4-(dimethylamino)pyridinium) bromide]
GI50 (PC-3 cells): 51 ± 10 nM
GI50 (HT-29 cells): 110 ± 10 nM
GI50 (A549 cells): 27 ± 10 nM
GI50 (MCF-7 cells [1]): 92 ± 19 nM
GI50 (Jurkat cells [2]): 120 ± 80 nM
GI50 (MDA-MB-231 cells [3]): 100 ± 50 nM
GI50 (HeLa cells [4]): 79 ± 24 nM
GI50 (HUVEC): 5100 ± 430 nM
Proliferation after washout of compound (Jurkat cells [5]; 72 h treatment, washed, further 72 h in drug-free medium): proliferation continued to be inhibited
Cell growth by trypan blue count (Jurkat cells [5]; concentration-dependent): significantly inhibited cell growth
Cell growth by trypan blue count (MDA-MB-231 cells [6]): significantly inhibited cell growth
Cell growth by trypan blue count (HeLa cells [7]): significantly inhibited cell growth
GI50 [8]: 27 to 120 nM
Cells with hypodiploid DNA content (apoptotic cells by cell-cycle analysis) (MCF-7 cells [9]; MCF-7): not detected
Cell-cycle effect (G1 phase) (MCF-7 cells [9]; MCF-7, 24 h, concentration-dependent): induced a G1 arrest of the cell cycle
Cells with hypodiploid DNA content (apoptotic cells by cell-cycle analysis) (Jurkat cells [10]): not detected
Cell-cycle effect (G1 phase) (Jurkat cells [10]; 24 h, concentration-dependent): induced a G1 arrest of the cell cycle
Cells with hypodiploid DNA content (apoptotic cells by cell-cycle analysis) (MDA-MB-231 cells [11]; MDA-MB-231): not detected
Cell-cycle effect (G1 phase) (MDA-MB-231 cells [11]; MDA-MB-231, 24 h, concentration-dependent): induced a G1 arrest of the cell cycle
GI50 (PBL (resting)): 1500 ± 640 nM
GI50 (PBL (+Pha)): 34 ± 7 nM
GI50 (Human fibroblasts): 5800 ± 1300 nM
IC50 (purified human ChoKα1): 1000 ± 10 nM
